The compounds below were run against T1, HCV polymerase (NS5B570n-Con1) (Hepatitis C virus genotype 1b, UniProt Q9WMX2) (assay: biochemical). Details: IC50 HCV NS5B RNA Polymerase Assay (values with asterisk), values with asterisk: cIRES RNA template, 3 nM NS5B570n-Con1.
T1 construct: contains a 21 amino acid deletion at the C-terminus relative to the full-length HCV polymerase; 6-histidine (N); made in house; host or cells: E. coli strain BL21(DE) pLysS (pET17b)
Set-up: species or system HCV Con1 strain
Compound COc1c(/C=C/c2ccc(NS(C)(=O)=O)cc2COCCC(C)(C)O)cc(-c2cc(F)c[nH]c2=O)cc1C(C)(C)C [I-219, N-[4-{(E)-2-[3-tert-Butyl-5-(5-fluoro-2-oxo-1,2-dihydro-pyridin-3-yl)-2-methoxy-phenyl]-vinyl}-3-(3-hydroxy-3-methyl-butoxymethyl)-phenyl]-methanesulfonamide] has an IC50 of 4 nM. For COc1c(/C=C/c2ccc(NS(C)(=O)=O)cc2)cc(-c2cc(Cl)c[nH]c2=O)cc1C1CC1 [I-292, N-(4-{(E)-2-[5-(5-Chloro-2-oxo-1,2-dihydro-pyridin-3-yl)-3-cyclopropyl-2-methoxy-phenyl]-vinyl}-phenyl)-methanesulfonamide], the IC50 was 29 nM. COc1c(/C=C/c2ccc(NS(=O)(=O)CCCN3CCCC3)cc2)cc(-c2ccc(C)[nH]c2=O)cc1C(C)(C)C [I-235, 3-Pyrrolidin-1-yl-propane-1-sulfonic acid (4-{(E)-2-[3-tert-butyl-2-methoxy-5-(6-methyl-2-oxo-1,2-dihydro-pyridin-3-yl)-phenyl]-vinyl}-phenyl)-amide] was tested, and the IC50 was 12 nM. COc1c(/C=C/c2ccncc2)cc(-c2ccc[nH]c2=O)cc1C(C)(C)C [I-240, 3-[3-tert-Butyl-4-methoxy-5-((E)-2-pyridin-4-yl-vinyl)-phenyl]-1H-pyridin-2-one] gave an IC50 of 5 nM. COc1c(/C=C/c2ccc(NS(C)(=O)=O)cc2C(C)(C)O)cc(-c2ccc[nH]c2=O)cc1C(C)(C)C [I-204, N-[4-{(E)-2-[3-tert-Butyl-2-methoxy-5-(2-oxo-1,2-dihydro-pyridin-3-yl)-phenyl]-vinyl}-3-(1-hydroxy-1-methyl-ethyl)-phenyl]-methanesulfonamide] was tested, and the IC50 was 1 nM. COc1c(/C=C/c2ccccc2C(F)(F)F)cc(-c2ccc[nH]c2=O)cc1C(C)(C)C [I-239, 3-{3-tert-Butyl-4-methoxy-5-[(E)-2-(2-trifluoromethyl-phenyl)-vinyl]-phenyl}-1H-pyridin-2-one] was tested, and the IC50 was 8 nM. COc1c(/C=C/c2ccc(NS(C)(=O)=O)cc2)cc(-c2ccc(C(C)O)[nH]c2=O)cc1C(C)(C)C (stereo not drawn) [I-223, N-[4-((E)-2-{3-tert-Butyl-5-[6-(1-hydroxy-ethyl)-2-oxo-1,2-dihydro-pyridin-3-yl]-2-methoxy-phenyl}-vinyl)-phenyl]-methanesulfonamide] showed an IC50 of 1 nM. COc1c(/C=C/c2ccc(NS(C)(=O)=O)cc2)cc(-c2ccc(CC#N)[nH]c2=O)cc1C(C)(C)C [I-224, N-(4-{(E)-2-[3-tert-Butyl-5-(6-cyanomethyl-2-oxo-1,2-dihydro-pyridin-3-yl)-2-methoxy-phenyl]-vinyl}-phenyl)-methanesulfonamide] gave an IC50 of 4 nM. CS(=O)(=O)Nc1ccc(/C=C/c2cc(-c3ccc[nH]c3=O)cc(C3(Cl)CC3)c2)cc1 [I-274, N-(4-{(E)-2-[3-(1-Chloro-cyclopropyl)-5-(2-oxo-1,2-dihydro-pyridin-3-yl)-phenyl]-vinyl}-phenyl)-methanesulfonamide] gave an IC50 of 2 nM. Compound CCS(=O)(=O)Nc1ccc(/C=C/c2cc(-c3cc(F)c[nH]c3=O)cc(C(C)(C)C)c2OC)cc1 [I-228, Ethanesulfonic acid (4-{(E)-2-[3-tert-butyl-5-(5-fluoro-2-oxo-1,2-dihydro-pyridin-3-yl)-2-methoxy-phenyl]-vinyl}-phenyl)-amide] has an IC50 of 5 nM. With COc1c(/C=C/c2ccc(NS(=O)(=O)CCCN3CCOCC3)cc2)cc(-c2cc(F)c[nH]c2=O)cc1C(C)(C)C [I-231, 3-Morpholin-4-yl-propane-1-sulfonic acid (4-{(E)-2-[3-tert-butyl-5-(5-fluoro-2-oxo-1,2-dihydro-pyridin-3-yl)-2-methoxy-phenyl]-vinyl}-phenyl)-amide] the IC50 was 4 nM. COCc1cc(NS(C)(=O)=O)ccc1/C=C/c1cc(-c2ccc(OC)[nH]c2=O)cc(C(C)(C)C)c1OC [I-209, N-(4-{(E)-2-[3-tert-Butyl-2-methoxy-5-(6-methoxy-2-oxo-1,2-dihydro-pyridin-3-yl)-phenyl]-vinyl}-3-methoxymethyl-phenyl)-methanesulfonamide] gave an IC50 of 1 nM. COc1c(/C=C/c2ccc(NS(C)(=O)=O)cc2)cc(-c2cc(Cl)c[nH]c2=O)cc1C1(C)COC1 [I-291] gave an IC50 of 2 nM. Work on COC(=O)c1cc(NS(C)(=O)=O)ccc1/C=C/c1cc(-c2ccc(C)[nH]c2=O)cc(C(C)(C)C)c1OC [I-201, 2-{(E)-2-[3-tert-Butyl-2-methoxy-5-(6-methyl-2-oxo-1,2-dihydro-pyridin-3-yl)-phenyl]-vinyl}-5-methanesulfonylamino-benzoic acid methyl ester] yielded an IC50 of 1 nM. Compound COCCOc1c(/C=C/c2ccc(NS(C)(=O)=O)cc2)cc(-c2ccc[nH]c2=O)cc1C(C)(C)C [I-250] has an IC50 of 23 nM. Work on COc1c(/C=C/c2ccc(NS(=O)(=O)CC(F)(F)F)cn2)cc(-c2cc(F)c[nH]c2=O)cc1C(C)(C)C [I-229, 2,2,2-Trifluoro-ethanesulfonic acid (6-{(E)-2-[3-tert-butyl-5-(5-fluoro-2-oxo-1,2-dihydro-pyridin-3-yl)-2-methoxy-phenyl]-vinyl}-pyridin-3-yl)-amide] yielded an IC50 of 2 nM.

Same assay, conditions: IC50 HCV NS5B RNA Polymerase Assay, values without asterisk; 20 nM NS5B570n-Con1 enzyme, 20 nM cIRES RNA template
COc1c(NC(=O)c2ccc(N)cc2OCCN(C)C)cc(-c2ccc[nH]c2=O)cc1C(C)(C)C [I-284] showed an IC50 of 6270 nM. For COc1c(C(=O)Nc2ccccc2C)cc(-c2ccc[nH]c2=O)cc1C(C)(C)C [I-79], the IC50 was 1170 nM. Work on COc1c(NC(=O)c2ccc(NCC(F)(F)F)cc2)cc(-c2ccc[nH]c2=O)cc1C(C)(C)C [I-253, N-[3-tert-Butyl-2-methoxy-5-(2-oxo-1,2-dihydro-pyridin-3-yl)-phenyl]-4-(2,2,2-trifluoro-ethylamino)-benzamide] yielded an IC50 of 2 nM. For COCCNc1ccc(C(=O)Nc2cc(-c3ccc[nH]c3=O)cc(C(C)(C)C)c2OC)cc1 [I-257, N-[3-tert-Butyl-2-methoxy-5-(2-oxo-1,2-dihydro-pyridin-3-yl)-phenyl]-4-(2-methoxy-ethylamino)-benzamide], the IC50 was 184 nM. COc1c(C(=O)NC2CCCCC2CO)cc(-c2ccc[nH]c2=O)cc1C(C)(C)C (stereo not drawn) [I-93] gave an IC50 of 1900 nM. COc1c(/C=C/c2ccc(N)nc2)cc(-c2ccc[nH]c2=O)cc1C(C)(C)C [I-171] was tested, and the IC50 was 4 nM. COc1c(CCc2ccc(NS(C)(=O)=O)cc2)cc(-c2ccc[nH]c2=O)c(F)c1C(C)(C)C [I-287, N-(4-{2-[3-tert-Butyl-4-fluoro-2-methoxy-5-(2-oxo-1,2-dihydro-pyridin-3-yl)-phenyl]-ethyl}-phenyl)-methanesulfonamide] gave an IC50 of 9 nM. CC(C)(C)c1cc(CCc2ccc(NS(C)(=O)=O)nc2)c(C#N)c(-c2ccc[nH]c2=O)c1 [I-212, N-(5-{2-[5-tert-Butyl-2-cyano-3-(2-oxo-1,2-dihydro-pyridin-3-yl)-phenyl]-ethyl}-pyridin-2-yl)-methanesulfonamide] gave an IC50 of 9 nM. COc1c(C(C)(C)C)cc(-c2ccc[nH]c2=O)c(O)c1CCc1ccc(NS(C)(=O)=O)cc1 [I-218, N-(4-{2-[3-tert-Butyl-6-hydroxy-2-methoxy-5-(2-oxo-1,2-dihydro-pyridin-3-yl)-phenyl]-ethyl}-phenyl)-methanesulfonamide] showed an IC50 of 8 nM. COc1c(NC(=O)c2ccc(N)c(C)c2)cc(-c2ccc[nH]c2=O)cc1C(C)(C)C [I-278] gave an IC50 of 14 nM. COc1c(C(=O)NCC(C)c2ccccc2)cc(-c2ccc[nH]c2=O)cc1C(C)(C)C (stereo not drawn) [I-35] showed an IC50 of 1230 nM. For CC(C)(C)c1cc(/C=C/c2ccc(NS(C)(=O)=O)cn2)c(O)c(-c2ccc[nH]c2=O)c1 [I-167, N-(6-{(E)-2-[5-tert-Butyl-2-hydroxy-3-(2-oxo-1,2-dihydro-pyridin-3-yl)-phenyl]-vinyl}-pyridin-3-yl)-methanesulfonamide], the IC50 was 21 nM. COc1c(/C=C(/CO)c2ccc(NS(C)(=O)=O)cc2)cc(-c2ccc[nH]c2=O)cc1C(C)(C)C [I-145] gave an IC50 of 53 nM. In the case of COc1c(/C=C/c2ccc(NS(C)(=O)=O)cn2)cc(-c2cc(F)c[nH]c2=O)cc1C(C)(C)C [I-170, N-(6-{(E)-2-[3-tert-Butyl-5-(5-fluoro-2-oxo-1,2-dihydro-pyridin-3-yl)-2-methoxy-phenyl]-vinyl}-pyridin-3-yl)-methanesulfonamide], the IC50 is reported as 6 nM. CC(C)(C)c1cc(/C=C/c2ccc(NS(C)(=O)=O)cc2C(=O)O)cc(-c2ccc[nH]c2=O)c1 [I-159, 2-{(E)-2-[3-tert-Butyl-5-(2-oxo-1,2-dihydro-pyridin-3-yl)-phenyl]-vinyl}-5-methanesulfonylamino-benzoic acid] showed an IC50 of 8 nM. In the case of Cc1cc(-c2ccc[nH]c2=O)cc(C2(C)CCC2)c1 [I-28], the IC50 is reported as 1460 nM. Work on COc1c(/C=C/c2ccc(NS(=O)(=O)CC3CC3)cc2)cc(-c2cc(F)c[nH]c2=O)cc1C(C)(C)C [I-153] yielded an IC50 of 8 nM. For COc1c(CC(C(=O)O)c2ccc(NS(C)(=O)=O)cc2)cc(-c2ccc[nH]c2=O)cc1C(C)(C)C (stereo not drawn) [I-179, 3-[3-tert-Butyl-2-methoxy-5-(2-oxo-1,2-dihydro-pyridin-3-yl)-phenyl]-2-(4-methanesulfonylamino-phenyl)-propionic acid], the IC50 was 8 nM.

Same assay, conditions: read-out: IC50 HCV NS5B RNA Polymerase Assay; values without asterisk; 20 nM NS5B570n-Con1 enzyme, 20 nM cIRES RNA template
With COc1c(/C=C/c2ccc(N)nn2)cc(-c2cc(F)c[nH]c2=O)cc1C(C)(C)C [I-183] the IC50 was 7 nM. COc1c(/C=C/c2ccc(NS(C)(=O)=O)nn2)cc(-c2cc(F)c[nH]c2=O)cc1C(C)(C)C [I-184] showed an IC50 of 4 nM. COc1c(CC(CO)c2ccc(NS(C)(=O)=O)cc2)cc(-c2ccc[nH]c2=O)cc1C(C)(C)C (stereo not drawn) [I-176] showed an IC50 of 6 nM.

Same assay, conditions: values without asterisk; 20 nM NS5B570n-Con1 enzyme, 20 nM cIRES RNA template; read-out: IC50 HCV NS5B RNA Polymerase Assay
COc1cc(C(=O)O)ccc1[N+](=O)[O-] [I-130] showed an IC50 of 3 nM. For O=C(O)c1ccc([N+](=O)[O-])c(Cl)c1 [I-131], the IC50 was 3 nM.

Source: patent publication US8273773B2 (priority 2008, dated 2012)
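Also: recombinant His-tagged enzyme from E. coli, radiolabeled nucleotide incorporation into acid-insoluble RNA read by scintillation after filtration, no-enzyme background subtracted, activity relative to positive control.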
